In ChEMBL document CHEMBL5126539, “Recent development of BTK-based dual inhibitors in the treatment of cancers” (Eur J Med Chem, 2022):
Values belong to the compound of their own block, whether it stands above or below them.

Key:
[1] = target: T1, Tyrosine-protein kinase BTK (Homo sapiens, UniProt Q06187); assay: Inhibition of BTK (unknown origin) assessed as residual activity at 200 nM relative to control
[2] = target: T2, Cytoplasmic tyrosine-protein kinase BMX (Homo sapiens) (UniProt P51813); assay: Inhibition of BMX (unknown origin) assessed as residual activity at 200 nM relative to control
T2 sequence (whole entry): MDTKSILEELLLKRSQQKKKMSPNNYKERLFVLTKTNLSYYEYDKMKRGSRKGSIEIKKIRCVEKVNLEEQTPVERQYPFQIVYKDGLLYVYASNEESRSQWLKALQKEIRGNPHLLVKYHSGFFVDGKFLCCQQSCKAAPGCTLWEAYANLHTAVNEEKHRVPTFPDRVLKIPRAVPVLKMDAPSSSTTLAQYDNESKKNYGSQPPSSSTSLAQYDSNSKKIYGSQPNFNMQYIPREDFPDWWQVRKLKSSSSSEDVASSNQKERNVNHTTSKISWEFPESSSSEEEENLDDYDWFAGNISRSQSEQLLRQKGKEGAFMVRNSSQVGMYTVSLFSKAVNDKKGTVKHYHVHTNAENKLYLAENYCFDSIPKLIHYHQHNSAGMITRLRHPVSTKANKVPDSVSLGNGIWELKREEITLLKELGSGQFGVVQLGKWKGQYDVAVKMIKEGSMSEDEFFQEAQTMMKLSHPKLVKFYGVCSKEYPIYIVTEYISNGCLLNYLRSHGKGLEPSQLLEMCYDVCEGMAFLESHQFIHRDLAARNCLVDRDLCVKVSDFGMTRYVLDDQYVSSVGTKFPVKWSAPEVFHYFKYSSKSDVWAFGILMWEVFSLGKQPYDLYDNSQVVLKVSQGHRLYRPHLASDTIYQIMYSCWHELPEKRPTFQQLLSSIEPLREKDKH

[3] = test system: DOHH-2; assay: Antitumor activity against human DOHH-2 cells xenografted in CB17/SCID mouse assessed as reduction in tumor growth at 50 mg/kg, po administered twice daily in combination with ibrutinib at 30 mg/kg for 30 days and measured twice a week relative to control; type: functional; parameters: scale not given: the % may be the effect or the level left; conditions: time 30 day
[4] = test system: DOHH-2; assay: Cytotoxicity against human DOHH-2 cells expressing BTK and PI3kdelta assessed as inhibition of cell growth incubated for 72 hrs by celltiter-glo assay; type: functional, cell-based; conditions: DOHH-2, 72 h
[5] = test system: DOHH-2; assay: Antitumor activity against human DOHH-2 cells xenografted in CB17/SCID mouse assessed as reduction in tumor growth at 25 mg/kg, po administered twice daily in combination with ibrutinib at 15 mg/kg for 30 days and measured twice a week relative to control; type: functional; parameters: scale not given: the % may be the effect or the level left; conditions: time 30 day
[6] = target: Tubulin (Homo sapiens) (UniProt P68371+Q9H4B7+P0DPH7+P68366+Q13509+Q71U36+P04350+Q3ZCM7+P07437+P68363+Q9BQE3+Q6PEY2+Q13885+Q9BVA1+Q9BUF5); assay: Inhibition of microtubule polymerization in human U-266 cells assessed as increase in phospho-Bcl2 expression at 10 uM measured upto 24 hrs by Western blot analysis relative to control; type: cell-based
[7] = Inhibition of mTORC1 (unknown origin) expressed in HEK293T cells using 4EBP1 as substrate assessed as reduction in substrate phosphorylation preincubated for 30 mins followed by ATP addition and measured after 30 mins by Western blot analysis; parameters: species or system Homo sapiens
[8] = target: T1, Tyrosine-protein kinase BTK; assay: Inhibition of BTK (unknown origin)
[9] = target: Tyrosine-protein kinase HCK (Homo sapiens, UniProt P08631); assay: Inhibition of HCK (unknown origin)
Sequence of Tyrosine-protein kinase HCK (P08631 whole entry): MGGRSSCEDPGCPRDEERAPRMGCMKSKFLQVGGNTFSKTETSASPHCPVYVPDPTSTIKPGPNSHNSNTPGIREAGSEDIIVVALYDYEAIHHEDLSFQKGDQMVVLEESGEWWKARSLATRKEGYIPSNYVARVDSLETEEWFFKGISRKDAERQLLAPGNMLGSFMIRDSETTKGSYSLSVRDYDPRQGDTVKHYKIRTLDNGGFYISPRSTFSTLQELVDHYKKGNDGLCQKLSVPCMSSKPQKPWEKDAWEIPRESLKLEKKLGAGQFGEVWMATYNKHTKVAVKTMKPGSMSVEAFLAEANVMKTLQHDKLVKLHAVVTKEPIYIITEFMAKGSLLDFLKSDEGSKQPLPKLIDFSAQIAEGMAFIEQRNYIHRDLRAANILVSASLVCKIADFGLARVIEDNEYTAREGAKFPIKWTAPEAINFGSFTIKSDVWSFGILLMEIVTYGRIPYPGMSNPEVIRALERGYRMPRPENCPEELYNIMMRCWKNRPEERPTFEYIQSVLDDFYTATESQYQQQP

[10] = target: T1, Tyrosine-protein kinase BTK; assay: Inhibition of N-terminal His6-tagged human full length recombinant BTK expressed in baculovirus infected Sf21 insect cells using YIYGSFK as substrate preincubated for 5 mins followed by 33p-labeled ATP addition and measured after 1 hr by thin layer chromatography
[11] = test system: PC-3; assay: Antitumor activity against human PC-3 cells xenografted in nude mouse assessed as inhibition of tumor growth at 10 mg/kg/day, ip administered for 42 days starting from 14 days post inoculation relative to control; type: functional; conditions: PC-3, 1008 h, time 42 day, read-out: TGI
[12] = target: T3, Tyrosine-protein kinase JAK3 (Homo sapiens, UniProt P52333); assay: Inhibition of recombinant JAK3 (unknown origin)
T3 sequence (P52333 whole entry): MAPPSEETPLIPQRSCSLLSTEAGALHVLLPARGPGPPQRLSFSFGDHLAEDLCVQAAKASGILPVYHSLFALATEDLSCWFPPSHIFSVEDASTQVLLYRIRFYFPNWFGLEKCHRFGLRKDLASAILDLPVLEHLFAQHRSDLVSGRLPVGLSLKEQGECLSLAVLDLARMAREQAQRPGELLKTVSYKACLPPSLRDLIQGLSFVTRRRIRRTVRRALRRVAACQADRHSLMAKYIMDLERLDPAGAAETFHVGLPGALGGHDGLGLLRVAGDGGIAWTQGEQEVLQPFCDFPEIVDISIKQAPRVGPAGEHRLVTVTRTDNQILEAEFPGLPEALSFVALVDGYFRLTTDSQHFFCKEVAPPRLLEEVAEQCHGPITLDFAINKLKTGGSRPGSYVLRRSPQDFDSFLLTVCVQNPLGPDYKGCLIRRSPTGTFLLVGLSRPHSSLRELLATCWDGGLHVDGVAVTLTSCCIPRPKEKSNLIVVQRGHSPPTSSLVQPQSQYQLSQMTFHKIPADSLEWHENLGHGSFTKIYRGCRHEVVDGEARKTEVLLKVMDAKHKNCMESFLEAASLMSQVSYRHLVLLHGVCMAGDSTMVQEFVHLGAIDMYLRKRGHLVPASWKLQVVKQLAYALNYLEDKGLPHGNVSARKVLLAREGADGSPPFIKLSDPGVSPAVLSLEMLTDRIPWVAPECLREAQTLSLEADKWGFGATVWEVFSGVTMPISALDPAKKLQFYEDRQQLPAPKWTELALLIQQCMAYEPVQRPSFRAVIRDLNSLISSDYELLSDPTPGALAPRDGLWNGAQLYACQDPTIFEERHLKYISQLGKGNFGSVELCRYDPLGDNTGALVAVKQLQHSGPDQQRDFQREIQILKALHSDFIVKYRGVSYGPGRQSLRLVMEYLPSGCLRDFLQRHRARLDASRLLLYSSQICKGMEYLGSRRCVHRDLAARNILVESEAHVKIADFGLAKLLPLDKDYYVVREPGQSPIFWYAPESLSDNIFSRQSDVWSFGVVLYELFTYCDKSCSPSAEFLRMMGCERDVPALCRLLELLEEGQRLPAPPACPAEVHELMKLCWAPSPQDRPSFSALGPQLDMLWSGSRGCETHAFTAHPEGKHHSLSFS

[13] = test system: U-266; assay: Cytotoxicity against human U-266 cells assessed as inhibition of cell growth incubated for 48 hrs by MTT assay; type: functional, cell-based; conditions: U-266, 48 h
[14] = Cytotoxicity against human MM.1 cells assessed as inhibition of cell growth incubated for 48 hrs by MTT assay; type: functional, cell-based; conditions: Mm1, 48 h
[15] = test system: U-266; assay: Antitumor activity against human U-266 cells xenografted in BALB/c nude mouse assessed as tumor growth inhibition at 1 mg/kg, ip administered twice weekly and measured for 4 weeks by digital caliper analysis relative to control; type: functional; conditions: U-266, 672 h, read-out: TGI
[16] = test system: RPMI-8226; assay: Cytotoxicity against human RPMI-8226 cells assessed as inhibition of cell growth incubated for 48 hrs by MTT assay; type: functional, cell-based; conditions: RPMI-8226, 48 h
[17] = target: T1, Tyrosine-protein kinase BTK; assay: Inhibition of N-terminal His tagged human recombinant full length BTK expressed in baculovirus infected Sf9 insect cells using Poly (4:1 Glu, Tyr) Peptide as substrate at 0.5 uM incubated for 60 mins by ADP-glo reagent based luminescence assay relative to control
[18] = test system: DOHH-2; assay: Antitumor activity against human DOHH-2 cells xenografted in CB17/SCID mouse assessed as reduction in tumor growth at 100 mg/kg, po administered twice daily for 30 days and measured twice a week relative to control; type: functional; parameters: scale not given: the % may be the effect or the level left; conditions: time 30 day
[19] = test system: MV4-11; assay: Antiproliferative activity against human MV4-11 cells assessed as inhibition of cell growth; type: functional, cell-based
[20] = test system: BaF3; assay: Antiproliferative activity against mouse BaF3 cells expressing […] FLT3 ITD F691L mutant assessed as inhibition of cell growth; type: functional, cell-based
[21] = test system: MOLM-13; assay: Antiproliferative activity against human MOLM-13 cells assessed as inhibition of cell growth; type: functional, cell-based
[22] = test system: BaF3; assay: Antiproliferative activity against mouse BaF3 cells expressing […] FLT3 […] mutant assessed as inhibition of cell growth; type: functional, cell-based
[23] = test system: BaF3; assay: Antiproliferative activity against mouse BaF3 cells expressing wild type FLT3 assessed as inhibition of cell growth; type: functional, cell-based
[24] = test system: BaF3; assay: Antiproliferative activity against mouse BaF3 cells expressing […] FLT3 ITD/[…] double mutant assessed as inhibition of cell growth; type: functional, cell-based
[25] = test system: BaF3; assay: Antiproliferative activity against mouse BaF3 cells expressing […] FLT3 ITD mutant assessed as inhibition of cell growth; type: functional, cell-based
[26] = test system: DOHH-2; assay: Antitumor activity against human DOHH-2 cells xenografted in CB17/SCID mouse assessed as reduction in tumor growth at 30 mg/kg, po administered once daily in combination with idelalisib at 50 mg/kg for 30 days and measured twice a week relative to control; type: functional; parameters: scale not given: the % may be the effect or the level left; conditions: time 30 day
[27] = test system: DOHH-2; assay: Antitumor activity against human DOHH-2 cells xenografted in CB17/SCID mouse assessed as reduction in tumor growth at 15 mg/kg, po administered once daily in combination with idelalisib at 25 mg/kg for 30 days and measured twice a week relative to control; type: functional; parameters: scale not given: the % may be the effect or the level left; conditions: time 30 day

T1 sequence (Q06187 whole entry): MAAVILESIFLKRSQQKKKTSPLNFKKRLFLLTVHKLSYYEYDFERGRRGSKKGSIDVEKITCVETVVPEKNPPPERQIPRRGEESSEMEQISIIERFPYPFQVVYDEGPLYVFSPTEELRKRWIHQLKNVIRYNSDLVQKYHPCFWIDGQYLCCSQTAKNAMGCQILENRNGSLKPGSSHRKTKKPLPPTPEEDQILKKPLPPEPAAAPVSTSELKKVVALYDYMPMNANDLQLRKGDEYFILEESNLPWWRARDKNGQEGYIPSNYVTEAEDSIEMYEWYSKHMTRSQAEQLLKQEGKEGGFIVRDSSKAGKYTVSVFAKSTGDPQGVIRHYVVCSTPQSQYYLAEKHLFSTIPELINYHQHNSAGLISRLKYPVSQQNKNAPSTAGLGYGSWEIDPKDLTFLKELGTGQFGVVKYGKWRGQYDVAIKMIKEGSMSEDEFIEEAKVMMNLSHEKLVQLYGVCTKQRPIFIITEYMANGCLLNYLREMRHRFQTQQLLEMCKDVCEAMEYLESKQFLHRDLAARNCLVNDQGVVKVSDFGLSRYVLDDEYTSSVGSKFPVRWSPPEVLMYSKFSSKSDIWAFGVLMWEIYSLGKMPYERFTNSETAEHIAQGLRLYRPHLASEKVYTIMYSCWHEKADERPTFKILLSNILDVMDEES

SMILES: C=CC(=O)Nc1cccc(-c2c[nH]c3ncccc23)c1
Activity [1]: 18.2%
Activity [2]: 2.7%

SMILES: CC[C@H](Nc1ncnc2[nH]cnc12)c1nc2cccc(F)c2c(=O)n1-c1ccccc1 [IDELALISIB]
Activity [3]: 57.9%
IC50 [4]: 860 nM
Activity [5]: 38.1%

SMILES: N#CSCc1ccc(CN2C(=O)C(=O)c3cc(Br)cc(Br)c32)cc1
IC50 [13]: 500 nM
IC50 [14]: 500 nM
inhibition [6]: 77%
inhibition in vivo at 1 mg/kg [15]: 50%
IC50 [16]: 500 nM
inhibition [17]: 50%

SMILES: Nc1ccc2c(c1)CC(n1nc(-c3cc(F)c4c(c3)NCCO4)c3c(N)ncnc31)C2 (stereo unspecified)
IC50 [4]: 1340 nM
Activity [18]: 45.2%

SMILES: Cc1cnc(-c2ccc(-c3ccc(NC(=O)Nc4cccc(C(F)(F)F)c4)cc3F)c3c2C(=O)NC3)[nH]1
IC50 [19]: 0.17 nM
IC50 [20]: 0.43 nM
IC50 [21]: 0.82 nM
IC50 [22]: 8.26 nM
IC50 [23]: 9.49 nM
IC50 [24]: 9.72 nM
IC50 [25]: 0.3 nM

SMILES: C=CC(=O)N1CCC[C@@H](n2nc(-c3ccc(Oc4ccccc4)cc3)c3c(N)ncnc32)C1 [IBRUTINIB]
Activity [26]: 57.9%
Activity [27]: 38.1%
IC50 [4]: 23 nM

Second part, led by results:

inhibition [6]: 66%
SMILES: CC[C@]1(O)C[C@@H]2CN(CCc3c([nH]c4ccccc34)[C@@](C(=O)OC)(c3cc4c(cc3OC)N(C)[C@H]3[C@@](O)(C(=O)OC)[C@H](OC(C)=O)[C@]5(CC)C=CCN6CC[C@]43[C@@H]65)C2)C1

IC50 [7]: 0.25 nM
SMILES: Nc1ccc(-c2ccc3ncc4ccc(=O)n(-c5cccc(C(F)(F)F)c5)c4c3c2)cn1

IC50 [8]: 0.92 nM
IC50 [9]: < 0.5 nM
SMILES: CN1CCN([C@H]2CC[C@H](n3nc(-c4ccc(Oc5ccccc5)cc4)c4c(N)ncnc43)CC2)CC1

IC50 [10]: 50 nM
SMILES: CC(C)Cc1nc2cc3c(cc2[nH]c1=O)nc(NC(=O)c1ccc(-c2ccncc2)cc1)n3CCCN1CCCCC1
inhibition in vivo at 10 mg/kg/day [11]: 70%

IC50 [12]: > 10000 nM
IC50 [8]: < 1 nM
SMILES: C=CC(=O)Nc1cccc(-c2c[nH]c3ncc(NC(=O)c4cccs4)cc23)c1
